Source: PMC11583123, “Linker Chemistry and Connectivity Fine-Tune the Immune Response and Kinetic Solubility of Conjugated NOD2/TLR7 Agonists” (Bioconjugate Chemistry, 2024)

Key:
[1] = Kinetic solubility in PBS (UHPLC, method of Hoelke et al.); type: physicochemical; conditions: for solubility kinetic: PBS, aqueous with cosolvent or surfactant or cyclodextrin, kinetic from dmso stock, 5% DMSO
Procedure: Second, the kinetic solubility of all individual building blocks (compounds 4-7) and conjugates was determined (results are listed in Table 1) in order to highlight how fine-tuning of linker traits can impact this physicochemical property. Kinetic solubility refers to the maximum solubility of a compound when it precipitates from a supersaturated solution, which is metastable and not in equilibrium; it was measured using the method described by Hoelke et al.[34] The length and composition of the linker as well as linkage site are important for activity and physicochemical characteristics of conjugates, which in turn affect their pharmacokinetic profiles. In general, the benzylic COOH was exploited exclusively as the linker attachment site in TLR7 agonist-featuring conjugates, while two potential linkage sites were considered in the structure of NOD2 agonist. […] In conjugates 22-24 and 29, the moieties were connected via the γ-COOH group of the NOD2 agonist. […] It has to be kept in mind that among the polyalkylethers, the structural requirements for aqueous solubility are poised toward the (−OCH2CH2−)n unit while (−OCH2CH2CH2−)n is not beneficial in this respect.[35] […]
suspension was filtered through a syringe filter (0.45 μm), diluted 2.25-fold with acetonitrile, and analyzed with UHPLC. The solubility was quantified with a five-point calibration curve from 500 to 0.8 μM generated by dilution of the original DMSO solution into a 1:1 mixture of acetonitrile and PBS. The content of DMSO in all solutions was fixed to 5% by adding the respective amounts of DMSO. The column used was Waters Acquity UPLC BEH C18 (1.7 μm, 2.1 × 50 mm). The eluent was a mixture of 0.1% TFA in water (A) and acetonitrile (B), with a gradient of (%B): 0−6 min, 5−95%; 6−8 min, 95%; 8−8.5 min, 95−5%. The column was thermostated at 40 °C.
3.1. Hek-Blue NOD2, TLR7 and TLR8 cells. […]
(BioTek Synergy microplate reader; Winooski, VT, USA). EC50 values were calculated using Prism

human NOD2 = target: T1, human NOD2 (Homo sapiens, UniProt Q9HC29); test: HEK-Blue NOD2 NF-κB SEAP reporter assay; type: cell-based; conditions: HEK-Blue NOD2 cells
T1 construct: host or cells: HEK-Blue NOD2 (HEK293-derived)
From the text: (§1) The building blocks and synthesized conjugates were initially assessed for their receptor-specific activities toward NOD2, TLR7 and TLR8 using the commercially available HEK-Blue NOD2, TLR7 and TLR8 reporter cell lines. These cell lines were derived from HEK293 cells by cotransfection of human NOD2/TLR7/TLR8 and an NF-κB-inducible secreted embryonic alkaline phosphatase (SEAP). Activation of NOD2/TLR7/TLR8, and subsequently of NF-κB, leads to the expression and secretion of SEAP, the levels of which can be quantified colorimetrically. […]
(§2) 3.1. Hek-Blue NOD2, TLR7 and TLR8 cells.
(§3) HEK-Blue NOD2, TLR7, and TLR8 cells (Invivogen, San Diego, CA, USA) were cultured according to the manufacturer instructions in Dulbecco’s modified Eagle’s medium (Sigma-Aldrich, St. Louis, MO, USA) supplemented with 10% heat-inactivated fetal bovine serum (Gibco), 2 mM L-glutamine (Sigma-Aldrich), 100 U/mL penicillin (Sigma-Aldrich), 100 µg/mL streptomycin (Sigma-Aldrich), and 100 µg/mL Normocin (Invivogen) for two passages. All subsequent passages of NOD2 and TLR8 cells were cultured in medium additionally supplemented with 100 µg/mL Zeocin and 30 µg/mL Blasticidin (Invivogen) and of TLR7 cells with 100 µg/mL Zeocin and 10 µg/mL Blasticidin. […]
(§4) The tested compounds were dissolved in DMSO and further diluted in culture medium to the desired final concentrations, such that the final DMSO concentration never exceeded 0.1%. […]
(§5) 3.4 NOD2/TLR7/TLR8 NF-kB reporter assay
(§6) HEK-Blue NOD2 cells (25,000 cells/well), TLR7 and TLR8 cells (40,000 cells/well) were seeded in 96-well plates in 100 µL HEK-Blue detection medium (Invivogen, San Diego, CA, USA) and treated with […]
(§7) corresponding vehicle (0.1% DMSO). After 18 h of incubation (37 °C, 5% CO2), secreted embryonic

human TLR7 = target: T2, human TLR7 (Homo sapiens, UniProt Q9NYK1); test: HEK-Blue TLR7 NF-κB SEAP reporter assay; type: cell-based; conditions: for EC50 / TLR7 agonistic activity (in words): HEK-Blue TLR7 cells; for EC50: 18 h, eight concentrations (1 nM to 10 μM), mean ± SEM; for TLR7 agonistic activity (in words): up to 10 μM
T2 construct: host or cells: HEK-Blue TLR7 (HEK293-derived)
T2 sequence (Q9NYK1 27-1049): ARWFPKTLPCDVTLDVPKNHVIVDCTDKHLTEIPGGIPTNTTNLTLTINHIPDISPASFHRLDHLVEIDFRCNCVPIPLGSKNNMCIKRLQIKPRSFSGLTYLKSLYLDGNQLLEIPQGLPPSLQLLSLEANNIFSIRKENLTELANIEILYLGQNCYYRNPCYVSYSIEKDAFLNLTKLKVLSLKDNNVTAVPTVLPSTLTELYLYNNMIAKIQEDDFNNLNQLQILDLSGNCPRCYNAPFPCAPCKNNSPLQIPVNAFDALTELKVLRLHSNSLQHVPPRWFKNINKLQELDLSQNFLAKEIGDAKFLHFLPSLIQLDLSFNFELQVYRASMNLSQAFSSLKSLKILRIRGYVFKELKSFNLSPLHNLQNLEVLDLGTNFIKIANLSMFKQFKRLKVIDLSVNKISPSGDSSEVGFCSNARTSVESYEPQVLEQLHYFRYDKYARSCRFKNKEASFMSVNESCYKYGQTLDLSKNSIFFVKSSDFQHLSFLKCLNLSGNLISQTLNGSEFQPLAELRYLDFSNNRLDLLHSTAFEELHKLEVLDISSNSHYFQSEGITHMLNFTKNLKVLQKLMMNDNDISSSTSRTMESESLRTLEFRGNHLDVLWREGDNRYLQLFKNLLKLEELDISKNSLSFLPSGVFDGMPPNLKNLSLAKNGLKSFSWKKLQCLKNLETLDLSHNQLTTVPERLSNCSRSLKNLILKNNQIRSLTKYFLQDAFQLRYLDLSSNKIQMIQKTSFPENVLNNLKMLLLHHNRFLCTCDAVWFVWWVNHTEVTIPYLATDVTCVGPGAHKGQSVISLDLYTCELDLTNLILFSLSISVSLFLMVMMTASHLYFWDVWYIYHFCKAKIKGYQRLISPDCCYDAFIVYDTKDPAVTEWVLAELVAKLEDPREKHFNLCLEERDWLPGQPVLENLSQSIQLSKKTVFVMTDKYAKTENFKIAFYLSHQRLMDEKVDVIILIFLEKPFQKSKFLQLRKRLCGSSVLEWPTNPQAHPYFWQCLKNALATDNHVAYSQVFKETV
From the text: as §1, §2, §3, §4, §5, §6, §7

human TLR8 = target: T3, human TLR8 (Homo sapiens, UniProt Q9NR97); test: HEK-Blue TLR8 NF-κB SEAP reporter assay; type: cell-based; conditions: HEK-Blue TLR8 cells, 18 h, eight concentrations (1 nM to 10 μM), mean ± SEM
T3 construct: host or cells: HEK-Blue TLR8 (HEK293-derived)
T3 sequence (Q9NR97 27-1041): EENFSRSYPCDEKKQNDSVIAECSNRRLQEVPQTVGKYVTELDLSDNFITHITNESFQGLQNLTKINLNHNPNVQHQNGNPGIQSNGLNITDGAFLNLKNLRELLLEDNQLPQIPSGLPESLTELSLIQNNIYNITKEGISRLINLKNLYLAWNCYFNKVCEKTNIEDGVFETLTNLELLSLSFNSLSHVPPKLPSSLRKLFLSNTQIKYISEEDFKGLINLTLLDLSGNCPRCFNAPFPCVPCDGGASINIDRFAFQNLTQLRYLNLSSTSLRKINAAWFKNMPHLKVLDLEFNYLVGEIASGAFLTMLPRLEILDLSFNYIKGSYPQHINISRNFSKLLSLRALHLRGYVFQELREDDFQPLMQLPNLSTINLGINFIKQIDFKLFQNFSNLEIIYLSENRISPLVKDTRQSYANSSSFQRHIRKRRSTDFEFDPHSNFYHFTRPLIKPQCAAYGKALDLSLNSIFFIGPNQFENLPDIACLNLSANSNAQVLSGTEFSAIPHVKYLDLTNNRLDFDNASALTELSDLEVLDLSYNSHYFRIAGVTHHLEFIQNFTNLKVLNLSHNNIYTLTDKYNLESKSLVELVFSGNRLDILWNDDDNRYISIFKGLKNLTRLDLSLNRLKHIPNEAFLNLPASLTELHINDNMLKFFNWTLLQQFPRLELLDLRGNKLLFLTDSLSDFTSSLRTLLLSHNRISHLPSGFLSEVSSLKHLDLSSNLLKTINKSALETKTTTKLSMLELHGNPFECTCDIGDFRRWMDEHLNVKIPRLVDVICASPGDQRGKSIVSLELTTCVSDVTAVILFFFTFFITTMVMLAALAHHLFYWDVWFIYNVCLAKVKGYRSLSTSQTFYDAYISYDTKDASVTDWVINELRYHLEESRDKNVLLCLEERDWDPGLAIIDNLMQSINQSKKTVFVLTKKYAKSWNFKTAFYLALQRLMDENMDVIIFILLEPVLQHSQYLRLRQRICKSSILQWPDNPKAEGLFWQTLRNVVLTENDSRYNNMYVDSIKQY
From the text: as §1, §2, §3, §4, §5, §6, §7

[2] = 18 h, eight concentrations (1 nM to 10 μM), mean ± SEM

T1 sequence (Q9HC29 whole entry): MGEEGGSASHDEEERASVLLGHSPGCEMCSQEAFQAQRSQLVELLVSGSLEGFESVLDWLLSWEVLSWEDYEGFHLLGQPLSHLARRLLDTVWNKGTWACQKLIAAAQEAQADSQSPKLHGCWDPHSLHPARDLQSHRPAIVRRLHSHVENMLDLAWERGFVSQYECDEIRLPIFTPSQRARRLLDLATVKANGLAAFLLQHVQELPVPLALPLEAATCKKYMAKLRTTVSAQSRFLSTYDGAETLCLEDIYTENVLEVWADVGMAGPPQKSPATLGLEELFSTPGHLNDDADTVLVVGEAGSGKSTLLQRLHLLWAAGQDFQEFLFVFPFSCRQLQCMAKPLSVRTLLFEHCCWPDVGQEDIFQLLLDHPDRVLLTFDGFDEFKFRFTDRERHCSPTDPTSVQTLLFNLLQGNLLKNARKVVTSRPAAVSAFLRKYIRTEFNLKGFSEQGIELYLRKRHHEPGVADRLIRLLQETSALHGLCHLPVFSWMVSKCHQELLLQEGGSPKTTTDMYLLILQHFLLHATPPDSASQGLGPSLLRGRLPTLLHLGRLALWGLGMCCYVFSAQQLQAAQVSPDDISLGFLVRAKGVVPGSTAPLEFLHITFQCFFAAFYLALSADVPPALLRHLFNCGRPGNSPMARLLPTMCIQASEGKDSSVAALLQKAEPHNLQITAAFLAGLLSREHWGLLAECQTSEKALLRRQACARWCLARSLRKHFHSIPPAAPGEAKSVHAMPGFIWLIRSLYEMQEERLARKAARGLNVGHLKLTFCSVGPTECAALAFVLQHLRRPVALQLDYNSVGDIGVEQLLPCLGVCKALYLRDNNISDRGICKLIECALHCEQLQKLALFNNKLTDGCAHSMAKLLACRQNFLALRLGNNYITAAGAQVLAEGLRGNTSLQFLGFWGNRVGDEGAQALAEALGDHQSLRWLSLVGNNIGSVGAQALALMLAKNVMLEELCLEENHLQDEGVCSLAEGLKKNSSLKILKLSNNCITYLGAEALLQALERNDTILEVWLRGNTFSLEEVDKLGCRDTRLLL

Structure (SMILES)	solubility kinetic [1] [µM]	EC50 (human TLR8) [nM]	EC50 (human NOD2; [2]) [nM]	EC50 (human TLR7) [nM]	Boost in solubility over conjugate 2 ([1]; ratio of kinetic solubilities in PBS) [fold]	TLR7 agonistic activity (in words) (human TLR7)	Enhancement of TLR7 activity over 22 and 29 (human TLR7; ratio of EC50 values) [fold]	EC50 (human NOD2) [nM]
CCCCOc1nc(N)c2nc(O)n(Cc3ccc(C(=O)NCCOCCOCCNC(=O)CC[C@@H](NC(=O)[C@@H](NC(=O)CNC(=O)/C=C/c4ccc(O)c(OC)c4)C(C)C)C(=O)OCC)cc3)c2n1 [compound 22]	85.4		> 10000	419	~25	activated TLR7 in the midnanomolar range		
CCCCOc1nc(N)c2nc(O)n(Cc3ccc(C(=O)NCCCOCCOCCOCCCNC(=O)CC[C@@H](NC(=O)[C@@H](NC(=O)CNC(=O)/C=C/c4ccc(O)c(OC)c4)C(C)C)C(=O)OCC)cc3)c2n1 [compound 23]	38.6		> 10000	165		activated TLR7 in the midnanomolar range	2.5	
CCCCOc1nc(N)c2nc(O)n(Cc3ccc(C(=O)NCCCCCCNC(=O)CC[C@@H](NC(=O)[C@@H](NC(=O)CNC(=O)/C=C/c4ccc(O)c(OC)c4)C(C)C)C(=O)OCC)cc3)c2n1 [compound 24]	2.8		6160 ± 1250	238		activated TLR7 in the midnanomolar range		6200
CCCCOc1nc(N)c2nc(O)n(Cc3ccc(C(=O)NCCOCCOCCNC(=O)[C@@H](CCC(=O)OCC)NC(=O)[C@@H](NC(=O)CNC(=O)/C=C/c4ccc(O)c(OC)c4)C(C)C)cc3)c2n1 [compound 26]	9.2		> 10000	247		activated TLR7 in the midnanomolar range		
CCCCOc1nc(N)c2nc(O)n(Cc3ccc(C(=O)NCCOCCOCCOCCn4cc(CNC(=O)CC[C@@H](NC(=O)[C@@H](NC(=O)CNC(=O)/C=C/c5ccc(O)c(OC)c5)C(C)C)C(=O)OCC)nn4)cc3)c2n1 [compound 29]	35.4		> 10000	391		activated TLR7 in the midnanomolar range		

Continued, in another order:

solubility kinetic [1] [µM]	EC50 (human TLR8) [nM]	Structure (SMILES)	EC50 (human NOD2; [2]) [nM]	EC50 (human TLR7) [nM]	Boost in solubility over conjugate 2 ([1]; ratio of kinetic solubilities in PBS) [fold]	TLR7 agonistic activity (in words) (human TLR7)	Enhancement of TLR7 activity over 22 and 29 (human TLR7; ratio of EC50 values) [fold]	EC50 (human NOD2) [nM]
469		CCOCc1nc2c(N)nc3ccccc3c2n1CC(C)(C)O [Resiquimod (6), Resiquimod, reference compound]						
1.9		CCCCOc1nc(N)c2nc(O)n(Cc3ccc(C(=O)NCCCCCC(=O)Oc4ccc(/C=C/C(=O)NCC(=O)N[C@H](C(=O)N[C@H](CCC(=O)OCC)C(=O)OCC)C(C)C)cc4OC)cc3)c2n1 [compound 1]	105 ± 2.8	98.6 ± 1.1				
3.67		CCCCOc1nc(N)c2nc(O)n(Cc3ccc(C(=O)NCCOCCNC(=O)CC[C@@H](NC(=O)[C@@H](NC(=O)CNC(=O)/C=C/c4ccc(O)c(OC)c4)C(C)C)C(=O)OCC)cc3)c2n1 [compound 2]	> 10000	21.4 ± 1				
483		CCCCOc1nc(N)c2nc(O)n(Cc3ccc(C(=O)O)cc3)c2n1 [compound 4, reference compound]		226 ± 14.5				
415		CCOC(=O)CCC(NC(=O)C(NC(=O)CNC(=O)C=Cc1ccc(O)c(OC)c1)C(C)C)C(=O)OCC (stereo not drawn) [compound 5]						
337	5900 ± 1790	CCOCc1nc2c(N)nc3ccccc3c2n1CC(C)(C)N [compound 7, reference compound]		1820 ± 97				
